Measurements: patent US7071190B2, “Inhibitors to tubulin polymerization” (Rigel Pharmaceuticals, Inc., priority 2002, dated 2006)

What was measured:
[1] = test system: MAP-rich tubulin protein from bovine brain; experiment: Tubulin polymerization turbidity assay (A340 over time); type: biochemical
Description: FIG. 1. Tubulin polymerization inhibitory activity of the compounds of the invention was assayed by following the turbidity of a tubulin-containing solution over time. Polymerization of tubulin generates microtubules, the presence of which increases the absorbance of the assay solution over time. Effective inhibition manifests as a reduction of rate of absorbance increase at 340 nanometers. (a) 10 μM of compounds 19, 39, 43, 54 and 62, as well as 10 μM nocodazole as a positive control and DMSO as a negative control. (b) 10 μM of compounds 1, 88, 95, and 54, as well as 10 μM as well a positive controls 1 and 2 and DMSO as a negative control. (c) 0.4, 2.0 and 10 μM compound 54 versus 0.4, 2.0 and 10 μM nocodazole as a positive control and DMSO as a negative control.
Measurement of the tubulin polymerization can be achieved using known methodologies. For example, assays for tubulin polymerization may be performed using a kit from Cytoskeleton (Denver, Colo.) and as described by Tahir, S. K., et al, (2001) Cancer Res., 61:5480–5.
The assay measures tubulin polymerization as an increase in turbidity (A340) over time. Assays for tubulin polymerization were performed using a kit from Cytoskeleton (Denver, Colo.) and as described by Tahir, S. K., et al, (2001) Cancer Res., 61: 5480–5, incorporated herein by reference, and as described below.
To determine the ability of the compounds to inhibit microtubule polymerization in vitro, the following protocol was followed: (i) 70 μl ice-cold MAP-rich tubulin protein from bovine brain (1.5 mg/ml final concentration) was added to polymerization buffer (80 mM PIPES pH6.8, 1 mM EGTA, 1 mM MgCl2, 1 mM GTP) in a quartz microcuvette; (ii) 0.7 μl of DMSO or 100X stock of control (nocodazole) or test compound (thienopyrimidine) in DMSO were added to the cuvette; (iii) the contents were mixed by pipefting gently; (iv) the polymerization reaction was initiated by placing the cuvette in pre-warmed (37° C.) cuvette holder in Beckman spectrophotometer; (v) the absorbance was monitored at 340 nm at 30 second intervals for 20 minutes. Tubulin polymerization result in increased turbidity in the reaction solution, which is registered as an increase in absorbance at 340 nm. Inhibitors of tubulin polymerization are detected by a reduction in the rate, the initial slope, and/or extent of the turbidity change (i.e., max. absorbance at 340 nm) in plots of ΔA340 versus time.

A549 cells = experiment: Bromodeoxyuridine (BrdU) proliferation assay; type: cell-based, human; conditions: for IC50: Homo sapiens, A549, 48 h, BrdU ELISA 48 hours after addition of compound, tested 0.03-10 uM, cell line not given (A549 method; SW-480 and MDA-MB-231 also used), read-out: Assay Result (IC50μM); for Activity ranking: most active compounds of the invention / Activity ranking: particularly active examples of the compounds of the invention: antiproliferative activity
Description: In order to determine the antiproliferative activity of microtubule inhibitors, A549 cells were plated in 96 well plates at 2000 cells/well 24 hours prior to the addition of a compound of the invention in 80 ul growth media (F12K, 10% FBS, Pen/Strep). Prior to addition to cells, compounds were solubilized in 100% DMSO to 5 mM and serially diluted in 6 semi-log steps in 100% DMSO. The diluted compounds were added to cells by two 15.8-fold dilution steps, the first being a dilution into a 23% ethanol/H2O mixture and the second being a dilution into growth media. Finally, these dilutions were followed by a 1:1 dilution onto cells. The resulting final solvent concentration was 0.2% DMSO/0.75% ethanol. Compounds were tested at final concentrations of 10, 3, 1, 0.3, 0.1 and 0.03 uM. Forty-eight hours after the addition of compound, the effects on cellular proliferation were measured using a cell proliferation BrdU ELISA (Roche Molecular Biochemicals, Cat.#1 669 915).

[2] = 10 μM compound, FIG. 1 (a), (b)

Row | Structure (SMILES) | Inhibition of tubulin polymerization (reduction of rate of absorbance increase at 340 nanometers) [1, 2] | IC50 (A549 cells) [µM] | Activity ranking: most active compounds of the invention (A549 cells) | Activity ranking: particularly active examples of the compounds of the invention (A549 cells) | Inhibition of tubulin polymerization (reduction of rate of absorbance increase at 340 nanometers) ([1]; 0.4, 2.0 and 10 μM, FIG. 1 (c))
1 | S=C(NNc1ncnc2cc(-c3ccccc3)sc12)NC1CC1 [Compound 19] | Inhibition activity is observed | 0.089 | most active | particularly active | 
2 | Cc1cc(C)cc(-c2cc3ncnc(NNC(=S)NC4CC4)c3s2)c1 [Compound 54] | Inhibition activity is observed | 0.016 | most active | particularly active | Inhibition activity is observed
3 | S=C(NCC1CC1)NNc1ncnc2cc(-c3ccccc3)sc12 [Compound 62] | Inhibition activity is observed | 0.228 | most active | particularly active | 
4 | S=C(NNc1ncnc2cc(-c3ccccc3Cl)sc12)NC1CC1 [Compound 43] | Inhibition activity is observed | 0.438 | most active | particularly active | 
5 | COCCNC(=S)NNc1ncnc2cc(-c3cccc(C)c3)sc12 [Compound 88] | Inhibition activity is observed | 0.06 | most active | particularly active | 
6 | Cc1cccc(-c2cc3ncnc(NNC(=S)NC4CC4)c3s2)c1 [Compound 39] | Inhibition activity is observed | 0.039 | most active | particularly active | 
